Laboratory results taken from patent publication US12252457B2, “Compositions and methods for reducing tactile dysfunction, anxiety, and social impairment” (President and Fellows of Harvard College, priority 2018, dated 2025).
Counter-ions that a name gives are not always drawn.

Legend:
Transporter, GABA = target: T1, Transporter, GABA (Rattus norvegicus, UniProt P23978); test: GABA transporter radioligand binding assay (Cat # 226400)
T1 construct: tissue Eurofins Panlabs 226400; host or cells: rat brain membranes (own knowledge of the vendor's assay and of the cited Shank et al. 1990 method)
Experimental: The activity of compound Compound 5 was evaluated in Radioligand Binding assays. Methods employed herein have been adapted from the scientific literature to maximize reliability and reproducibility. Reference standards were run as an integral part of each assay to ensure the validity of the results obtained. Where presented, IC50 values were determined by a non-linear, least squares regression analysis using MathIQ™ (ID Business Solutions Ltd., UK). Where inhibition constants (K) are presented, the Ki values were calculated using the equation of Cheng and Prusoff (Cheng, Y., Prusoff, W. H., Biochem. Pharmacol. 22:3099-3108, 1973) using the observed IC50 of the tested compound, the concentration of radioligand employed in the assay, and the historical values for the KD of the ligand (obtained experimentally at Eurofins Panlabs, Inc.). Where presented, the Hill coefficient (nH), defining the slope of the competitive binding curve, was calculated using MathIQ™. […] Where IC50, Ki and/or nH data are presented without Standard Error of the Mean (SEM), data are insufficient to be quantitative.
Biochemical assay results are presented as the percent inhibition of specific binding or activity. All other results are expressed in terms of the quantitation method of that assay. For primary assays, only the lowest concentration with a significant response, judged by the criteria of the assay, is shown in this summary. […] Unless otherwise requested, primary screening in duplicate with quantitative data (e.g., IC50±SEM, Ki ±SEM and nH) are shown where applicable for individual requested assays.
J Neurochem. 54:2007-2015.

[1] = tested on: Mecp2^R306C and Shank3B^+/− mice; test: Chronic isoguvacine treatment from P0-P42 of Mecp2 and Shank3 germline mutant mice; assay type: in vivo, mouse
Experimental: FIGS. 21A-21O show chronic administration of isoguvacine improves tactile over-reactivity, region-selective cortical abnormalities, and some ASD-related behaviors in Mecp2 and Shank3 mutant mice. FIG. 21A: Representative images of P21 control and Mecp2^C/y mutant mice treated daily from P0-21 with either saline or isoguvacine (2 mg/kg). FIG. 21B: Average phenotypic score of P21 Shank3B^+/− or Mecp2^C/y mutant mice and control littermates treated daily with either saline or isoguvacine (2 mg/kg). One-way ANOVA with post-hoc Tukey's test, *, p<0.05. FIG. 21C: Average bodyweight of P21 Shank3B^+/− or Mecp2^C/y mutant mice and control littermates treated daily with either saline or isoguvacine (2 mg/kg). One-way ANOVA with post-hoc Tukey's test, *, p<0.05. […] One-way ANOVA with post-hoc Tukey's test, *, p<0.05. FIG. 21E: Discrimination index for textured NORT. One-way ANOVA with post-hoc Tukey's test, *, p<0.05. FIG. 21F: Representative activity traces in the OF test. FIG. 21G: Percent time spent in the center of the OF chamber. One-way ANOVA with post-hoc Tukey's test, *, p<0.05. FIG. 21H: Percent time spent in the open arms of the EPM. One-way ANOVA with post-hoc Tukey's test, *, p<0.05. FIGS. 21I-21J: Preference index for the percentage of time spent investigating the novel mouse in the “Sociability” (FIG. 21I) or “Social Novelty Recognition Preference” (FIG. 21J) portion of the 3-chamber social interaction test. One-way ANOVA with post-hoc Tukey's test, *, p<0.05. FIG. 21K: Representative IHC images of transverse S1 brain sections, showing PV immunoreactivity in Shank3B^+/− or Mecp2^C/y mutant mice and control littermates treated daily from P1-42 with either saline or isoguvacine (2 mg/kg). FIGS. 21L-21M: Quantification of the number of PV-positive (PV^+) neurons in S1 (FIG. 21L) and V1 (FIG. 21M). One-way ANOVA with post-hoc Tukey's test, *, p<0.05. FIG. 21N: Representative traces showing ePSCS (−70 my hold) and iPSCs (0 mV hold) from S1 slices from Shank3B^+/− or Mecp2^C/y mutant mice and control littermates treated daily from P1-42 with either saline or isoguvacine (2 mg/kg). FIG. 21O: Quantification of excitatory/inhibitory (E/I) ratio in S1 or V1 slices from control and mutant mice. One-way ANOVA with post-hoc Tukey's test, *, p<0.05.
Therefore, it was tested whether chronic treatment of Mecp2 and Shank3 germline mutant mice with isoguvacine beginning shortly after birth (i.p. administration, 2 mg/kg per daily, from P0-P42) improves any of the ASD-related phenotypes commonly observed in adulthood. […] Taken together, treatment with a peripherally restricted GABAA receptor agonist during early postnatal development may provide an effective therapeutic strategy for improving tactile over-reactivity and a subset of other key features of ASD, including anxiety, without causing sedation and other undesirable effects of activating brain GABAA receptors during development.

SMILES | GABA transporter inhibition (in words) (Transporter, GABA) | IC50 (Transporter, GABA) [µM] | Ki (Transporter, GABA) [µM] | inhibition at 30 µM (Transporter, GABA) [%] | inhibition at 0.1 µM (Transporter, GABA; Conc. 0.1 μM) [%] | inhibition at 0.3 µM (Transporter, GABA; Conc. 0.3 μM) [%] | inhibition at 1 µM (Transporter, GABA; Conc. 1 μM) [%] | inhibition at 3 µM (Transporter, GABA; Conc. 3 μM) [%] | inhibition at 10 µM (Transporter, GABA; Conc. 10 μM) [%] | inhibition at 100 µM (Transporter, GABA; Conc. 100 μM) [%] | inhibition at 300 µM (Transporter, GABA; Conc. 300 μM) [%] | inhibition at 1000 µM (Transporter, GABA; Conc. 1 mM) [%] | nH (Hill coefficient) (Transporter, GABA; slope of competitive binding curve) | tactile over-reactivity, anxiety-like behaviors, social impairments, PV+ neuron abnormalities in S1 and BLA, E/I ratios in S1 ([1]; 8-week-old mice, 2 mg/kg i.p. daily P0-P42) | motor impairments ([1]; Mecp2 mutants, chronic 2 mg/kg) | overall body appearance, or phenotypic score ([1]; P21, 2 mg/kg i.p. daily, vs saline-treated) | bodyweight of mutant mice ([1]; P21, Shank3B and Mecp2 mutant mice, 2 mg/kg daily) | overgrooming phenotype ([1]; Shank3 mutants, chronic 2 mg/kg) | textured discrimination deficits, acoustic PPI performance, memory impairments, PV+ neuron abnormalities and E/I ratios in V1 ([1]; Shank3 or Mecp2 mutants, 2 mg/kg i.p. daily P0-P42)
NC1C=C(C(=O)O)CCC1 (stereo not shown) [Compound 5, 3-aminocyclohex-1-enecarboxylic acid hydrochloride] | potent GABA transporter inhibitor | 28.1 | 27.5 | 52 | -10 | 3 | -1 | 2 | 19 | 86 | 97 | 104 | 1.47 |  |  |  |  |  | 
O=C(O)C1=CCNCC1 [Isoguvacine, isoguvacine] |  |  |  |  |  |  |  |  |  |  |  |  |  | significantly improved multiple ASD-associated behavioral phenotypes | not improved | substantial improvement | increased bodyweight and were not different in weight from control mice | nor was the overgrooming phenotype rescued | did not improve
